Patent US5324648A, “Substituted isocoumarins as serine protease inhibitors and anti-inflammatory agents” (Georgia Tech Research Corporation, priority 1992, dated 1994)
Where two headings read alike, the source gives them in different places.

Tests used:
bovine thrombin = biological target: T1, bovine thrombin (Bos taurus, UniProt P00735); assay: Inactivation rate of bovine thrombin; format: biochemical; settings: pH 7.5, 25° C, read-out: kobs/[I]
T1 construct: bovine thrombin
Procedure: (§1) Inactivation rates of serine proteases by substituted isocoumarins were measured by the incubation method. An aliquot of inhibitor (25 or 50 μl) in Me2 SO was added to a buffered enzyme solution (0.01-2.3 μM) to initiate the inactivation. Aliquots (50 μl) were withdrawn at various intervals and the residual enzymatic activity was measured. Me2 SO concentration in the reaction mixture was 8-12% (v/v). 0.1 Hepes, 0.01M CaCl2, pH 7.5 buffer was utilized for trypsin and coagulation enzymes. 0.1M Hepes, 0.5M NaCl, pH 7.5 was utilized for other serine proteases. The inhibitor concentrations are shown in all the tables. Peptide thioesters or peptide nitroanilides with appropriate sequence were used as substrates for various serine proteases. All peptide thioester hydrolysis rates were measured with assay mixtures containing 4,4'-dithiodipyridine (ε324 =19800M^-1 cm^-1; Grasetti & Murray, Arch. Biochem. Biophys. 119, pp 41-49 (1967)). Peptide 4-nitroanilide nitroanilide hydrolysis was measured at 410 nm (ε410 =8800M^-1 cm^-1; Erlanger et al., Arch. Biochem. Biophys. 95, pp 271-278 (1961)). First order inactivation rate constant (kobs) were obtained from plots of ln (vt /vo) vs time, and the correlation coefficients were greater than 0.98.
(§2) ^a Conditions were as 0.1M Hepes, 0.01M CaCl2, pH 7.5 and 8-12%
(§3) Me2 SO and 25° C. Rate constants were measured by incubation
(§4) method unless otherwise noted. An aliquot of inhibitor was added to an
(§5) enzyme solution and aliquots removed with time and assayed for remaining
(§6) enzymatic activity. Firstorder rate constants, kobs were obtained
(§7) from the plots of ln(vt /vo) versus time.
(§8) ^a Inhibition rates were measured in 0.1M Hepes, 0.01M CaCl2, pH
(§9) 7.5 buffer, 8% Me2 SO and at 25° C.

human factor Xa = biological target: T2, human factor Xa (Homo sapiens, UniProt P00742); assay: Inactivation rate of human factor Xa; format: biochemical; settings: Table VIII; pH 7.5, 25° C; [I] 3.6-44 μM; read-out: kobs/[I]
T2 construct: human factor Xa
Procedure: as §1, §2, §3, §4, §5, §6, §7, §8, §9

human factor XIIa = biological target: T3, human factor XIIa (Homo sapiens, UniProt P00748); assay: Inactivation rate of human factor XIIa; format: biochemical; settings: pH 7.5, 25° C, read-out: kobs/[I]
T3 construct: human factor XIIa
T3 sequence (P00748 373-615 limits assumed): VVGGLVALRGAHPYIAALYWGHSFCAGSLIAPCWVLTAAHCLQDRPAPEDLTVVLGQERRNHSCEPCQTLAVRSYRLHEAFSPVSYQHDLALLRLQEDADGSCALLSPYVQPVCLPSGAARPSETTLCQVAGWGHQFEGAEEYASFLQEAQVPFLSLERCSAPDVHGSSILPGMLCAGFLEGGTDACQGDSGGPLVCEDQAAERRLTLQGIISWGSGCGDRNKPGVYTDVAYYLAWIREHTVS
T3 sequence (P00748 20-372 partner limits assumed): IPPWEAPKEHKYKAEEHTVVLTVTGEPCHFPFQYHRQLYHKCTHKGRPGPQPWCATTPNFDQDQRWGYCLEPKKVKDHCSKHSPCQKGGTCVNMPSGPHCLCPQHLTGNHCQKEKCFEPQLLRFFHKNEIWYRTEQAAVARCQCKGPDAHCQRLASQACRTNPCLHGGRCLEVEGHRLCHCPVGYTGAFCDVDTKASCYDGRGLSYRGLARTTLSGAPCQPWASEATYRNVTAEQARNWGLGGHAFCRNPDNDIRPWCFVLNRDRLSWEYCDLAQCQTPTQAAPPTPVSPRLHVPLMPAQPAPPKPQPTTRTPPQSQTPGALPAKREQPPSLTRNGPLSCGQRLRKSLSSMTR
Procedure: as §1, §2, §3, §4, §5, §6, §7, §8, §9

human thrombin = biological target: T4, human thrombin (Homo sapiens, UniProt P00734); assay: Inactivation rate of human thrombin; format: biochemical; settings: Table VIII; pH 7.5, 25° C; [I] 1.2-54 μM; read-out: kobs/[I]
T4 construct: human thrombin
Procedure: as §1, §8, §9

human lung tryptase = assay: Inactivation rate of human lung tryptase; format: biochemical; settings: Table IX; pH 7.5, 25° C; [I] 0.42-0.47 μM
Procedure: as §1
(§10) ^a Inactivation rates were measured at 0.1M Hepes, 0.5M NaCl, pH 7.5
(§11) buffer, 8% Me2 SO and 25° C.
as §8
(§12) 7.5 buffer for human plasmin; 25 mM Phosphate, 0.5M NaCl, 1 mM EDTA, pH
(§13) 7.5 buffer for rat skin tryptase and 0.1M Hepes, 0.5M NaCl, pH 7.5 for
(§14) human lung tryptase, human skin tryptase and rt-PA. All enzymes were
(§15) assayed with ZArg-SBzl (0.07 mM) in the presence of 4,4dithiodipyridine
(§16) (0.33 mM). Reaction mixtures contained 8% Me2 SO and assays were […]

rat skin tryptase = biological target: T5, rat skin tryptase (Rattus norvegicus, UniProt P27435); assay: Inactivation rate of rat skin tryptase; format: biochemical; settings: pH 7.5, Table IX; pH 7.5, 25° C; [I] 0.42-0.51 μM; read-out: kobs/[I]
T5 construct: from tissue; host or cells: rat skin
Procedure: as §1
^b Inactivation rates were measured at 25 mM phosphate, 0.5M NaCl, 1
mM EDTA, pH 7.5 buffer, 9% Me2 SO and 25° C.
as §8, §12, §13, §14, §15, §16

[1] = biological target: recombinant human tissue plasminogen activator (Homo sapiens, UniProt P00750); assay: Inactivation rate of recombinant human tissue plasminogen activator; format: biochemical; settings: Table IX; not time dependent; at 0.34-5.0 μM
Procedure: as §1
^a Inactivation constants were measured at 0.1M Hepes, 0.5M NaCl (or
as §8, §12, §13, §14, §15, §16

bovine factor Xa = biological target: T6, bovine factor Xa (Bos taurus, UniProt P00743); assay: Inactivation rate of bovine factor Xa; format: biochemical; settings: Table I; pH 7.5, 25° C; [I] 0.4 to 310 μM; read-out: kobs/[I]
T6 construct: bovine factor Xa

[2] = biological target: T7, porcine pancreatic kallikrein (Sus scrofa, UniProt P00752); assay: Inactivation rate of porcine pancreatic kallikrein; format: biochemical; settings: Table I; pH 7.5, 25° C; [I] 0.4 to 300 μM; read-out: kobs/[I]
T7 construct: from tissue; host or cells: porcine pancreas (from the name)

human plasma kallikrein = biological target: T8, human plasma kallikrein (Homo sapiens, UniProt P03952); assay: Inactivation rate of human plasma kallikrein; format: biochemical; settings: Table I; pH 7.5, 25° C; [I] 3 to 330 μM (footnote g); read-out: kobs/[I]
T8 construct: human plasma kallikrein; from tissue; host or cells: human plasma (from the name)
Procedure: as §1, §2, §3, §4, §5, §6, §7

human factor XIa = biological target: T9, human factor XIa (Homo sapiens, UniProt P03951); assay: Inactivation rate of human factor XIa; format: biochemical; settings: Table I; pH 7.5, 25° C; [I] 3 to 330 μM; read-out: kobs/[I]
T9 construct: human factor XIa
Procedure: as §1, §2, §3, §4, §5, §6, §7, §8, §9

bovine trypsin = biological target: T10, bovine trypsin (Bos taurus, UniProt P00760); assay: Inactivation rate of bovine trypsin; format: biochemical; settings: Table I; pH 7.5, 25° C; [I] 1 to 12 μM; read-out: kobs/[I]
T10 sequence (P00760 24-246): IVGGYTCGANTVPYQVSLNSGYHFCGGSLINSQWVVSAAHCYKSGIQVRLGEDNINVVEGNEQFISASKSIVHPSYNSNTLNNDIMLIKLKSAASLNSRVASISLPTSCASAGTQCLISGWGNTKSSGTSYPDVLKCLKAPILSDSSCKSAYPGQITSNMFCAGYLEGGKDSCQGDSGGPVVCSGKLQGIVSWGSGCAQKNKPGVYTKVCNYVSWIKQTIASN
Procedure: as §1, §2, §3, §4, §5, §6, §7, §8, §9

[3] = biological target: sheep lung lymph tryptase; assay: Inactivation rate of sheep lung lymph tryptase; format: biochemical; settings: Table III; pH 7.5, 25° C; [I] 10 to 460 μM
Procedure: Inactivation rates of serine proteases by substituted isocoumarins were measured by the incubation method. An aliquot of inhibitor (25 or 50 μl) in Me2 SO was added to a buffered enzyme solution (0.01-2.3 μM) to initiate the inactivation. Aliquots (50 μl) were withdrawn at various intervals and the residual enzymatic activity was measured. […] 0.1 Hepes, 0.01M CaCl2, pH 7.5 buffer was utilized for trypsin and coagulation enzymes. […] The inhibitor concentrations are shown in all the tables. Peptide thioesters or peptide nitroanilides with appropriate sequence were used as substrates for various serine proteases.
as §10, §11

[4] = biological target: T11, human leukocyte elastase (HLE) (Homo sapiens, UniProt P08246); assay: Inactivation of human leukocyte elastase (HLE); format: biochemical; settings: Table IV; pH 7.5, 25° C; [I] 0.001 to 0.18 mM; read-out: kobs/[I]
T11 construct: from tissue; host or cells: human leukocytes (from the name)
T11 sequence (P08246 30-267): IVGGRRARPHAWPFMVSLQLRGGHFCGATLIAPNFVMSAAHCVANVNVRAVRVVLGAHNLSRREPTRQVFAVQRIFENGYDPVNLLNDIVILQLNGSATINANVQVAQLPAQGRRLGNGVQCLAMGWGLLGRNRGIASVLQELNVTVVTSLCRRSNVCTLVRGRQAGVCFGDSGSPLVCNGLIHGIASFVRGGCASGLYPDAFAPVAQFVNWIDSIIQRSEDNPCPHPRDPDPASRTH

chymotrypsin = chymotrypsin (Bos taurus, UniProt P00766); assay: Inactivation of chymotrypsin; format: biochemical, bovine; settings: Table IV; pH 7.5, 25° C; [I] 0.004 to 0.33 mM; read-out: kobs/[I]
cathepsin G = biological target: T12, cathepsin G (Homo sapiens, UniProt P08311); assay: Inactivation of cathepsin G; format: biochemical; settings: Table IV
T12 construct: from tissue; host or cells: human leukocytes
T12 sequence (P08311 21-255): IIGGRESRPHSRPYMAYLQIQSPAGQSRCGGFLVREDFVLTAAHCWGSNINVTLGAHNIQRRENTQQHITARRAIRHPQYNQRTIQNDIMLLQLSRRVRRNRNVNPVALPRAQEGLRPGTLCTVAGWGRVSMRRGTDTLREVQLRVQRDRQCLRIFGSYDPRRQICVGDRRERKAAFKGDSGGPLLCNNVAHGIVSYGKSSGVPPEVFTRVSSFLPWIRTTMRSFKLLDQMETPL

[5] = Spontaneous hydrolysis in Hepes buffer; format: physicochemical; settings: hepes buffer; 0.1 Hepes, 0.5M NaCl, pH 7.5, 9% Me2SO, 25° C; read-out: t1/2 for spontaneous hydrolysis
Procedure: ^a Conditions were 0.1 Hepes, 0.5M NaCl, pH 7.5 and 9% Me2 SO at
25° C. Spontaneous hydrolysis rates were measured
spectrophotometrically by monitoring the decrease in absorbance due to th
isocoumarin ring system (wavelength 335-380 nm) using the firstorder rate

[6] = biological target: T13, porcine pancreatic elastase (PPE) (Sus scrofa, UniProt P00772); assay: Inactivation of porcine pancreatic elastase (PPE); format: biochemical; settings: Table IV; pH 7.5, 25° C; [I] 0.01 to 0.51 mM; read-out: kobs/[I]
T13 construct: from tissue; host or cells: porcine pancreas (from the name)

human plasmin = biological target: T14, human plasmin (Homo sapiens, UniProt P00747); assay: Inactivation rate of human plasmin; format: biochemical; settings: Table VI; pH 7.5, 25° C; [I] 4 to 330 μM; read-out: kobs/[I]
T14 construct: human plasmin; from tissue; host or cells: human plasma
T14 sequence (P00747 581-810 limits assumed): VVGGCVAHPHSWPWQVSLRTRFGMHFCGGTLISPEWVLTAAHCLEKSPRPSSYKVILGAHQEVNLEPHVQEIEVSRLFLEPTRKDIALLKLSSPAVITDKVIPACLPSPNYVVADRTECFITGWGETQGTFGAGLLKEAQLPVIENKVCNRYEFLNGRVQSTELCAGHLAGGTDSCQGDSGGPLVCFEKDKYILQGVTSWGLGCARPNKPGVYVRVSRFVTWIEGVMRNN
T14 sequence (P00747 97-580 partner limits assumed): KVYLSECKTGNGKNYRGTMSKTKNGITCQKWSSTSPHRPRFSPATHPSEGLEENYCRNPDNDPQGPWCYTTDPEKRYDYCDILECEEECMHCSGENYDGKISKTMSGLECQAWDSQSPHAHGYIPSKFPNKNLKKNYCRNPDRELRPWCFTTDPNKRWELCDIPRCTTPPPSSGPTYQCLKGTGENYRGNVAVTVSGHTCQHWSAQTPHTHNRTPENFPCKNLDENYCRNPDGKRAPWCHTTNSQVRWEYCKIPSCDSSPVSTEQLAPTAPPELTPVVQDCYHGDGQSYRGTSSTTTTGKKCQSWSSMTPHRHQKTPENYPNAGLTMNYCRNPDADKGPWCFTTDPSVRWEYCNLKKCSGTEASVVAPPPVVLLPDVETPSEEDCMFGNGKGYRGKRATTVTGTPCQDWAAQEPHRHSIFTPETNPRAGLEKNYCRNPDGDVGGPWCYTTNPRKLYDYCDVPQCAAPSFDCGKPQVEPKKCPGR

T7 sequence (P00752 8-246): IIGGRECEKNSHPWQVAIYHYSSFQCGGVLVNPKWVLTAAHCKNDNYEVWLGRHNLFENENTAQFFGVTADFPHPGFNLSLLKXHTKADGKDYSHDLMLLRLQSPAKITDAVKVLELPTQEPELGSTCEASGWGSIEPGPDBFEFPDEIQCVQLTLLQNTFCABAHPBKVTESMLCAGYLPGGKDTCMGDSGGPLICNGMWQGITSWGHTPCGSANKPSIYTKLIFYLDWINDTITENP
T2 sequence (P00742 235-488 limits assumed): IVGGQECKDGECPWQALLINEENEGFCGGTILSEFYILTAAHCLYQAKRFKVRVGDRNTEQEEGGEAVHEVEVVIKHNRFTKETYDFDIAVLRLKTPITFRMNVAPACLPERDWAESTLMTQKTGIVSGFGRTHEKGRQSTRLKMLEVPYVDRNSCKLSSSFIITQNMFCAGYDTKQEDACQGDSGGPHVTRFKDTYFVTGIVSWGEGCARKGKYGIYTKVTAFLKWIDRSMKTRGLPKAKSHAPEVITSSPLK
T2 sequence (P00742 41-179 partner limits assumed): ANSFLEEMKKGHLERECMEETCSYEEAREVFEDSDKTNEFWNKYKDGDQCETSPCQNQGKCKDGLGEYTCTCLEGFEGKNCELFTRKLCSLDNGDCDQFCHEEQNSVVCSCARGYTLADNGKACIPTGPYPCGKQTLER
T9 sequence (P03951 388-625 limits assumed): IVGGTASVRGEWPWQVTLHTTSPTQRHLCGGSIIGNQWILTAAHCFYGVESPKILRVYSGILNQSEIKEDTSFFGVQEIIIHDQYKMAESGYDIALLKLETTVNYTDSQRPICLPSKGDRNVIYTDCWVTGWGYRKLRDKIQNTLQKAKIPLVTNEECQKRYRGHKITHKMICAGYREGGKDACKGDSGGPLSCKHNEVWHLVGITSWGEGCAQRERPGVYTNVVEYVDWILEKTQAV
T9 sequence (P03951 19-387 partner limits assumed): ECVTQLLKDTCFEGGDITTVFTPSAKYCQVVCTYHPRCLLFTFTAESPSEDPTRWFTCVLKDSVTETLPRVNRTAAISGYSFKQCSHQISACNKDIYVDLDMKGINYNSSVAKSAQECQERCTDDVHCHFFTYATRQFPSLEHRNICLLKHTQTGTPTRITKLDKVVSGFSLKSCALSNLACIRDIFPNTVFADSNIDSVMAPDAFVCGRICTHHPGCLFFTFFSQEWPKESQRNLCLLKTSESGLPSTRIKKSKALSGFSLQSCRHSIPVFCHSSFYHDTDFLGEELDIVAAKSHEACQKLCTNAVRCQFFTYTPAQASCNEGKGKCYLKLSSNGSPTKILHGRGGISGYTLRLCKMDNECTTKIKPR
T8 sequence (P03952 391-638 limits assumed): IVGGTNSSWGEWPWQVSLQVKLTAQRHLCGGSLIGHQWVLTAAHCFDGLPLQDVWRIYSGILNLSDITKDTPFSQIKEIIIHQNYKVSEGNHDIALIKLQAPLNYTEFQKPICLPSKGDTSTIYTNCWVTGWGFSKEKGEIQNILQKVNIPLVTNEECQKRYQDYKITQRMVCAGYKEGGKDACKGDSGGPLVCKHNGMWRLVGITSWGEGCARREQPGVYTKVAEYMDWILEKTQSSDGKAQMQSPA
T8 sequence (P03952 20-390 partner limits assumed): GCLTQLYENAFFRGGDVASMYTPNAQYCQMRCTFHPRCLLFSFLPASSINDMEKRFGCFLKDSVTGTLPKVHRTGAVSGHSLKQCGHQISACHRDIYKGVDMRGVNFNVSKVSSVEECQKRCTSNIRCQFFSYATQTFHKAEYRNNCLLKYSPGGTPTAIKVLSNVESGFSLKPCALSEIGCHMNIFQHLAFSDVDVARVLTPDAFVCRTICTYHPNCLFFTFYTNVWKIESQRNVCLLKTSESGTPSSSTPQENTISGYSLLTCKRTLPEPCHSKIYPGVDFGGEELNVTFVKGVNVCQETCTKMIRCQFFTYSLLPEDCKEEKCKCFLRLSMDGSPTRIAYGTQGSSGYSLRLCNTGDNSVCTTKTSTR
T13 sequence (P00772 27-266): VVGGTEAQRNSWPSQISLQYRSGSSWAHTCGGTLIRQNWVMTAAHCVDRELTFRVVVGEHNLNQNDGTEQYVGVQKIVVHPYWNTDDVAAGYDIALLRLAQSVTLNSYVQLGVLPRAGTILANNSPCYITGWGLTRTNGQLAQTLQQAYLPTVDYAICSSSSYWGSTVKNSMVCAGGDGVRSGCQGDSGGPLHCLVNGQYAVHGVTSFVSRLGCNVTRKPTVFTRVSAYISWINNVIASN
recombinant human tissue plasminogen activator, sequence (P00750 36-562): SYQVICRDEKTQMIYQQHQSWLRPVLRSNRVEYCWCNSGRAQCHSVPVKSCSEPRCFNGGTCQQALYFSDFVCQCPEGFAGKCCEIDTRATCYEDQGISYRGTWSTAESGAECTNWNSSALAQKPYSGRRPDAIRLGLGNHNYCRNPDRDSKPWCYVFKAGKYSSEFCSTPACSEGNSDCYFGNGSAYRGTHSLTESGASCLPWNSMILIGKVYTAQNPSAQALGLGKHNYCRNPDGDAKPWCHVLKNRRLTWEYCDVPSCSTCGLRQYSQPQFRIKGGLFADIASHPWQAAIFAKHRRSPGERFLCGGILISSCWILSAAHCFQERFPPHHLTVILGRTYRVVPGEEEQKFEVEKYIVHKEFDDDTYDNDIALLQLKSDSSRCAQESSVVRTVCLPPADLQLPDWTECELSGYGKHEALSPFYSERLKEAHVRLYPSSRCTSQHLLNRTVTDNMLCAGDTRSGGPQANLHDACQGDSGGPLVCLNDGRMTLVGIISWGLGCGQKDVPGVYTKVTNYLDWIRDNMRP
T5 sequence (P27435 29-273): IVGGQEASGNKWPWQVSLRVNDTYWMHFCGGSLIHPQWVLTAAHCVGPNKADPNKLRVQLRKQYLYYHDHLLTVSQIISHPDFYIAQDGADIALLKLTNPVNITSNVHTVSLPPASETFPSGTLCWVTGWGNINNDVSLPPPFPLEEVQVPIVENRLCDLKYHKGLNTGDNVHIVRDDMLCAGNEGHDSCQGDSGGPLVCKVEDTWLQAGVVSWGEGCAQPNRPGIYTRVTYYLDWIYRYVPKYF
T6 sequence (P00743 234-492 limits assumed): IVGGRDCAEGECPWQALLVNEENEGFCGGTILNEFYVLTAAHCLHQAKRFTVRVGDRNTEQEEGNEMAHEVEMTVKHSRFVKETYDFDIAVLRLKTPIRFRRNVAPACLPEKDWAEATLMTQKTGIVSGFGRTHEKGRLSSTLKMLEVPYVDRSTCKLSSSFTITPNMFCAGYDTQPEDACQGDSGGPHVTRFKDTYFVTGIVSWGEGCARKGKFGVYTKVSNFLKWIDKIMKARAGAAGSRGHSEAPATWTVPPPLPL
T6 sequence (P00743 41-180 partner limits assumed): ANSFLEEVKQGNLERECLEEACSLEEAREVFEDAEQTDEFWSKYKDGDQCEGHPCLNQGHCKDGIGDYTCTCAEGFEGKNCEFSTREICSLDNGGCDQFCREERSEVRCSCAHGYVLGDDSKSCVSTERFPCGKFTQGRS

kinact/KI (bovine thrombin; Table VIII, [I] 1.2-54 μM) [M⁻¹ s⁻¹]	kinact/KI (human factor Xa) [M⁻¹ s⁻¹]	kinact/KI (human thrombin) [M⁻¹ s⁻¹]	kinact/KI (bovine thrombin; Table I, [I] 0.3 to 400 μM) [M⁻¹ s⁻¹]	kinact/KI [2] [M⁻¹ s⁻¹]	kinact/KI (human plasma kallikrein) [M⁻¹ s⁻¹]	kinact/KI (human factor XIa) [M⁻¹ s⁻¹]	kinact/KI (human factor XIIa; Table I, [I] 3 to 330 μM) [M⁻¹ s⁻¹]	kinact/KI (bovine trypsin) [M⁻¹ s⁻¹]	kobs/[I] [3] [M⁻¹ s⁻¹]	kinact/KI [4] [M⁻¹ s⁻¹]	kinact/KI (chymotrypsin) [M⁻¹ s⁻¹]	half-life [5] [h]	SMILES	also measured
15800	3630	6730											N=C(N)SCCOc1oc(=O)c2cc(NC(=O)Cc3ccccc3)ccc2c1Cl [PhCH2 CONH-CiTEtOIC, 7-(phenylacetylamino)-4-chloro-3-(2-isothiureidoethoxy)isocoumarin]	kinact/KI (human factor XIIa; Table VIII, [I] 3.6-4.9 μM): 59000 M⁻¹ s⁻¹; kobs/[I] (human lung tryptase): 110,000 M^-1 s^-1; kinact/KI (rat skin tryptase): 120000 M⁻¹ s⁻¹; percentage of inhibition [1]: 64%
1070	1490	880											C[C@H](N)C(=O)N[C@@H](C)C(=O)Nc1ccc2c(Cl)c(OCCSC(=N)N)oc(=O)c2c1 [Ala--Ala--NH-CiTEtOIC, 7-(L-alanyl-L-alanylamino)-4-chloro-3-(2-isothiureidoethoxy)isocoumarin]	
			5700	16000	62000	1200	690	45000	150	0.9	2600	2.33	N=C(N)Nc1ccc2cc(OCCc3ccccc3)oc(=O)c2c1 [7-guanidino-3-(2-phenylethoxy)isocoumarin]	kinact/KI (bovine factor Xa): 11000 M⁻¹ s⁻¹; inhibition at 530 µM (cathepsin G; not time dependent, at 0.53 mM): 87%
			3	5	30	30	3	1200	8.1	47	38	10.1	NCCCOc1cc2ccccc2c(=O)o1 [3-(3-aminopropoxy)isocoumarin]	kinact/KI [6]: 2.3 M⁻¹ s⁻¹; kinact/KI (cathepsin G; pH 7.5, 25° C, [I] 0.002 to 0.35 mM, read-out: kobs/[I]): 2.8 M⁻¹ s⁻¹; kinact/KI (human plasmin): 36 M⁻¹ s⁻¹
